Laboratory results taken from the NIST ThermoML archive (doi:10.1007/s10765-011-0999-6).
Numbers after ± are expanded uncertainties.

Settings: Gas, Capillary tube (Ostwald / Ubbelohde) method

[HH] [hydrogen]
viscosity (294.1 K, 34430 kPa): 0.00964 ± 0.00059 mPa·s
viscosity (294.52 K, 4680 kPa): 0.00901 ± 0.00043 mPa·s
viscosity (294.91 K, 10160 kPa): 0.00911 ± 0.00045 mPa·s
viscosity (295 K, 81640 kPa): 0.01139 ± 0.00093 mPa·s
viscosity (295.01 K, 52730 kPa): 0.01021 ± 0.00072 mPa·s
viscosity (295.02 K, 99320 kPa): 0.01196 ± 0.0011 mPa·s
viscosity (333.28 K, 4940 kPa): 0.00983 ± 0.00046 mPa·s
viscosity (333.3 K, 48480 kPa): 0.01055 ± 0.0007 mPa·s
viscosity (333.31 K, 69110 kPa): 0.01122 ± 0.00085 mPa·s
viscosity (333.31 K, 94920 kPa): 0.01217 ± 0.001 mPa·s
viscosity (333.32 K, 9480 kPa): 0.0099 ± 0.00048 mPa·s
viscosity (400.1 K, 28190 kPa): 0.01115 ± 0.00062 mPa·s
viscosity (400.11 K, 4830 kPa): 0.01109 ± 0.00052 mPa·s
viscosity (400.11 K, 9190 kPa): 0.01127 ± 0.00054 mPa·s
viscosity (400.11 K, 49790 kPa): 0.01163 ± 0.00075 mPa·s
viscosity (400.12 K, 71210 kPa): 0.01217 ± 0.00089 mPa·s

N#N [nitrogen]
viscosity (297.22 K, 31330 kPa): 0.02799 ± 0.0013 mPa·s
viscosity (297.23 K, 40300 kPa): 0.03044 ± 0.0015 mPa·s
viscosity (297.24 K, 50620 kPa): 0.03457 ± 0.0017 mPa·s
viscosity (297.25 K, 24520 kPa): 0.02464 ± 0.0011 mPa·s
viscosity (297.25 K, 85020 kPa): 0.0474 ± 0.0023 mPa·s
viscosity (297.26 K, 70280 kPa): 0.04283 ± 0.0021 mPa·s
viscosity (297.3 K, 570 kPa): 0.01774 ± 0.00078 mPa·s
viscosity (297.32 K, 2900 kPa): 0.01836 ± 0.00081 mPa·s
viscosity (297.32 K, 4960 kPa): 0.01892 ± 0.00084 mPa·s
viscosity (297.33 K, 9020 kPa): 0.0199 ± 0.0009 mPa·s
viscosity (297.45 K, 60740 kPa): 0.03906 ± 0.0019 mPa·s
viscosity (297.46 K, 95040 kPa): 0.05291 ± 0.0026 mPa·s
viscosity (333.14 K, 10530 kPa): 0.02163 ± 0.00098 mPa·s
viscosity (333.16 K, 15340 kPa): 0.0222 ± 0.001 mPa·s
viscosity (333.22 K, 24490 kPa): 0.02538 ± 0.0012 mPa·s
viscosity (333.3 K, 34970 kPa): 0.02945 ± 0.0014 mPa·s
viscosity (333.42 K, 48850 kPa): 0.03239 ± 0.0016 mPa·s
viscosity (333.51 K, 74270 kPa): 0.03968 ± 0.002 mPa·s
viscosity (333.59 K, 95150 kPa): 0.04811 ± 0.0024 mPa·s
viscosity (400.07 K, 7230 kPa): 0.02297 ± 0.001 mPa·s
viscosity (400.07 K, 10740 kPa): 0.02334 ± 0.001 mPa·s
viscosity (400.07 K, 15630 kPa): 0.02427 ± 0.0011 mPa·s
viscosity (400.07 K, 25910 kPa): 0.02639 ± 0.0012 mPa·s
viscosity (400.07 K, 35280 kPa): 0.0284 ± 0.0014 mPa·s
viscosity (400.07 K, 47240 kPa): 0.03189 ± 0.0015 mPa·s
viscosity (400.07 K, 65020 kPa): 0.03573 ± 0.0018 mPa·s
viscosity (400.07 K, 95070 kPa): 0.04385 ± 0.0022 mPa·s
viscosity (499.24 K, 30120 kPa): 0.02951 ± 0.0014 mPa·s
viscosity (499.24 K, 48890 kPa): 0.03275 ± 0.0016 mPa·s
viscosity (499.24 K, 69570 kPa): 0.03658 ± 0.0018 mPa·s
viscosity (499.24 K, 94610 kPa): 0.04084 ± 0.0021 mPa·s
viscosity (499.43 K, 10560 kPa): 0.02699 ± 0.0012 mPa·s
